Data set [1] in a line: NOVARTIS: Cytotoxicity against human hepatocellular carcinoma cell line (Huh7). The settings on record: Huh7 cells (hepatocellular carcinoma cell line). The format is toxicity, cell-based, Huh-7.
Data set [2] has as its system Plasmodium falciparum. Description: NOVARTIS: Inhibition of Plasmodium falciparum 3D7 (drug-susceptible) proliferation in erythrocyte-based infection assay. The format is functional, organism-based. Conditions: Plasmodium falciparum, 3D7.
The test system of data set [3] is Plasmodium falciparum. Description: NOVARTIS: Inhibition of Plasmodium falciparum W2 (drug-resistant) proliferation in erythrocyte-based infection assay. The settings on record: Plasmodium falciparum, W2; read-out: EC50. The data set is classed as functional, organism-based.

Broadly, the CC50 is the concentration at which the toxic effect on the cells reaches its halfway point. Usually EC50 stands for the concentration at which the effect is half-maximal.

Each structure is given as a SMILES string. Where only a bound is given, the exact number is not on record here.

For `COc1ccc2nc(NC(=N)N)nc(C)c2c1`, the CC50 in data set [1] was found to be 57500 nM. Further, the half-maximal effective concentration (EC50) in the data set with Plasmodium falciparum [2] is 712 nM; with Plasmodium falciparum [3] it was 867 nM.
For `COc1cccc(Nc2nc(NCCO)c3ccccc3n2)c1`, in that order: 21100 nM, 115 nM and 312 nM.
Turning to `COc1ccc(C2=C(c3ccc(OC)cc3)C3(c4ccccc4)C(=O)C2(c2ccccc2)C2C(=O)N(c4ccc(C)cc4)C(=O)C23)cc1` (stereo unspecified), the CC50 in data set [1] was > 100000 nM. Also, the results for the concentration giving a half-maximal response (EC50) in the data set on Plasmodium falciparum [2] and in the data set with Plasmodium falciparum [3] were > 12500 nM and 1480 nM, respectively.
With `CCCCOc1ccc(C(O)C(CN2CCCCC2)c2ccccc2)cc1` (stereo unspecified), the cytotoxic concentration (CC50) in data set [1] amounted to 39300 nM. Moreover, the 50% effective concentration (EC50) was 835 nM in the data set on Plasmodium falciparum [2] and 591 nM with Plasmodium falciparum [3].
In the case of `CC(C)OC(=O)c1cccnc1SCC(=O)Nc1ccc(C(F)(F)F)cc1Cl`, in data set [1], the CC50 is > 100000 nM. In addition, the EC50 in the data set on Plasmodium falciparum [2] turned out to be 5540 nM; in the data set with Plasmodium falciparum [3] it was 1500 nM.
Take `CCN1CCN(c2cc(C)c(C#N)c3nc4ccccc4n23)CC1`: in data set [1], the 50% cytotoxic concentration (CC50) is > 100000 nM. For the same molecule, the EC50 in the data set with Plasmodium falciparum [2] stood at 798 nM; in the data set on Plasmodium falciparum [3], 1510 nM.
`CC(C)CCNC(=O)CN1C(=O)c2cccnc2Oc2ccccc21`: the CC50 in data set [1] was > 100000 nM. Besides, the EC50 with Plasmodium falciparum [2] came to 4050 nM; in the data set on Plasmodium falciparum [3], 1500 nM.
As for `O=C(Nc1ccccc1C(F)(F)F)N1CCC(N2CCCCC2)CC1`, the CC50 in data set [1] is > 100000 nM. In addition, the concentration for a half-maximal effect (EC50) was > 9510 nM in the data set with Plasmodium falciparum [2] and 1500 nM in the data set on Plasmodium falciparum [3].
In the case of `Cc1ccc(NC(=O)c2cc(C(=O)c3cc(Cl)ccc3O)cn(-c3ccc(C)cc3C)c2=O)c(C)c1`, the half-maximal cytotoxic concentration (CC50) in data set [1] is 59000 nM. Moreover, the concentration giving a half-maximal response (EC50) stood at 934 nM with Plasmodium falciparum [2] and 885 nM with Plasmodium falciparum [3].
On to `COc1ccccc1N1CCN(c2ccc(NC(=O)c3ccc(F)cc3)cc2C(=O)N2CCCC2)CC1`, for which the half-maximal cytotoxic concentration (CC50) in data set [1] was > 10000 nM. The results for the EC50 in the data set on Plasmodium falciparum [2] and with Plasmodium falciparum [3] were > 1250 nM and 149 nM, respectively.
Take `COC(=O)[C@@H]1C[C@@H](NC(=O)c2ccc(OC)cc2OC)CN1Cc1cccc2ccccc12`: the half-maximal cytotoxic concentration (CC50) in data set [1] was > 100000 nM. In addition, the EC50 is 4690 nM in the data set on Plasmodium falciparum [2] and 1490 nM with Plasmodium falciparum [3].
In the case of `CCOc1ccc(NC(=O)C(C)CSc2nc3ccc(NC(=O)CC)cc3s2)cc1` (stereo unspecified), the CC50 in data set [1] is > 100000 nM. The EC50 in the data set on Plasmodium falciparum [2] was > 12500 nM; in the data set with Plasmodium falciparum [3], 1480 nM.
For `Cc1cc(C)n(-c2ccc(NC(=O)C3CCN(Cc4ccncc4)CC3)cc2)n1`, in that order: > 100000 nM, 1280 nM and 1480 nM.
Turning to `COc1cc(C2c3[nH]c4ccccc4c3C[C@@H]3C(=O)N(CCc4ccccc4)CC(=O)N23)cc(OC)c1OC` (stereo partly specified), in data set [1], the CC50 was > 10800 nM. Also, the figures for the EC50 with Plasmodium falciparum [2] and in the data set on Plasmodium falciparum [3] were 497 nM and 161 nM, respectively.
For the molecule `CC(=O)N1c2ccc(C)cc2C(C)(c2ccccc2)CC1(C)C` (stereo unspecified), in data set [1], the CC50 worked out at 45400 nM. Further, the EC50 amounted to 776 nM in the data set on Plasmodium falciparum [2] and 674 nM in the data set on Plasmodium falciparum [3].
For `c1cc2c(cc1Nc1c3c(nc4nncn14)CCC3)OCCO2`, in that order: > 100000 nM, 2950 nM and 1480 nM.
As to `O=C(Nc1ccc(NC(=O)c2ccc(C3=NCCCN3)cc2)cc1)Nc1ccc(C2=NCCCN2)cc1`, the cytotoxic concentration (CC50) in data set [1] is > 10000 nM. Moreover, the half-maximal effective concentration (EC50) in the data set with Plasmodium falciparum [2] stood at 115 nM; with Plasmodium falciparum [3], 148 nM.
For `c1ccc(C[n+]2ccc(-c3nc4ccccc4s3)cc2)cc1`, in that order: > 100000 nM, 1850 nM and 1480 nM.
Consider `CCCC(=O)N(C/C=C/c1ccccc1OC)CCN1CCN(C(=O)Nc2cccc(C)c2)CC1`, for which the CC50 in data set [1] is > 10000 nM. The EC50 in the data set with Plasmodium falciparum [2] is > 1250 nM; with Plasmodium falciparum [3], 148 nM.
On to `CC(=O)C1C(=O)c2c(cccc2[N+](=O)[O-])C1=Nc1ccccc1C` (stereo unspecified), for which the 50% cytotoxic concentration (CC50) in data set [1] was 51700 nM. Moreover, the half-maximal effective concentration (EC50) was 643 nM in the data set with Plasmodium falciparum [2] and 777 nM with Plasmodium falciparum [3].
The molecule `c1ccc(C2=Nc3ccccc3C(c3ccccc3)(c3ccccc3)N2)cc1` gave a CC50 in data set [1] of 39400 nM. In addition, the 50% effective concentration (EC50) stood at 754 nM with Plasmodium falciparum [2] and 590 nM with Plasmodium falciparum [3].
As to `O=C(NCCCCNc1ccnc2cc(Cl)ccc12)C1CCCCC1`, the CC50 in data set [1] was > 13300 nM. In addition, the EC50 was 311 nM with Plasmodium falciparum [2] and 198 nM with Plasmodium falciparum [3].

For the origin of these results see ChEMBL document CHEMBL1156829 (Proc Natl Acad Sci U S A, 2008).
